From the supplement of paper PMC10307832

Legend:
Assay in all cases: relative viability (nuclei count vs DMSO), 5 days (fraction); higher = more cells survive
COR-L23 = tested on: COR-L23
Procedure, shortened: (§1)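 Relative viability equals treated-well nuclei counts divided by vehicle-well nuclei counts. Counts came from 4× images of lung cancer cell lines grown in 1536-well plates for 5 days after pin-tool dosing on the day after seeding. Dosing used one drug alone or a fixed anchor-drug dose plus five library-drug doses (not always all listed) in √10 steps, and values are medians of duplicate plates.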

NCI-H2023 = tested on: NCI-H2023
Procedure, shortened: as §1

NCI-H1993 = tested on: NCI-H1993
Procedure, shortened: as §1

NCI-H1734 = tested on: NCI-H1734
Procedure, shortened: as §1

PC-14 = tested on: PC-14
Procedure, shortened: as §1

RERF-LC-KJ = tested on: RERF-LC-KJ
Procedure, shortened: as §1

ABC-1 = tested on: ABC-1
Procedure, shortened: as §1

NCI-H2085 = tested on: NCI-H2085
Procedure, shortened: as §1

NCI-H520 = tested on: NCI-H520
Procedure, shortened: as §1

NCI-H2170 = tested on: NCI-H2170
Procedure, shortened: as §1

NCI-H3122 = tested on: NCI-H3122
Procedure, shortened: as §1

EPLC-272H = tested on: EPLC-272H
Procedure, shortened: as §1

201T = tested on: 201T
Procedure, shortened: as §1

NCI-H441 = tested on: NCI-H441
Procedure, shortened: as §1

EKVX = tested on: EKVX
Procedure, shortened: as §1

NCI-H1650 = tested on: NCI-H1650
Procedure, shortened: as §1

NCI-H2405 = tested on: NCI-H2405
Procedure, shortened: as §1

NCI-H2347 = tested on: NCI-H2347
Procedure, shortened: as §1

NCI-H1563 = tested on: NCI-H1563
Procedure, shortened: as §1

NCI-H647 = tested on: NCI-H647
Procedure, shortened: as §1

LOU-NH91 = tested on: LOU-NH91
Procedure, shortened: as §1

HCC-44 = tested on: HCC-44
Procedure, shortened: as §1

COc1cc(N2CCC(C(N)=O)CC2)ccc1Nc1nc(N)c(Cl)c(Nc2ccccc2S(=O)(=O)C(C)C)n1 [HG-5-88-01] + C[C@@H](Oc1cc(-c2cnn(C3CCNCC3)c2)cnc1N)c1c(Cl)ccc(F)c1Cl [Crizotinib] (partner 1 µM) showed a relative viability (COR-L23; first compound 0.04 µM) of 0.651, a relative viability (COR-L23; first compound 0.1265 µM) of 0.588 and a relative viability (COR-L23; first compound 0.4 µM) of 0.645. For the same compound, the relative viability (COR-L23; first compound 1.265 µM) was 0.584, the relative viability (COR-L23; first compound 4 µM) was 0.389 and the relative viability (NCI-H2023; first compound 0.04 µM) was 0.729. It also gave a relative viability (NCI-H2023; first compound 0.1265 µM) of 0.763, a relative viability (NCI-H2023; first compound 0.4 µM) of 0.543 and a relative viability (NCI-H2023; first compound 1.265 µM) of 0.405. It also gave a relative viability (NCI-H2023; first compound 4 µM) of 0.118, a relative viability (NCI-H1993; first compound 0.04 µM) of 0.988 and a relative viability (NCI-H1993; first compound 0.1265 µM) of 0.773. It also gave a relative viability (NCI-H1993; first compound 0.4 µM) of 0.892, a relative viability (NCI-H1993; first compound 1.265 µM) of 0.615 and a relative viability (NCI-H1993; first compound 4 µM) of 0.753. The relative viability (NCI-H1734; first compound 0.04 µM) was 0.71, the relative viability (NCI-H1734; first compound 0.1265 µM) was 0.709 and the relative viability (NCI-H1734; first compound 0.4 µM) was 0.681. It also gave a relative viability (NCI-H1734; first compound 1.265 µM) of 0.497, a relative viability (NCI-H1734; first compound 4 µM) of 0.64 and a relative viability (PC-14; first compound 0.04 µM) of 0.863. It also gave a relative viability (PC-14; first compound 0.1265 µM) of 0.972, a relative viability (PC-14; first compound 0.4 µM) of 0.914 and a relative viability (PC-14; first compound 1.265 µM) of 0.783. For the same compound, the relative viability (PC-14; first compound 4 µM) was 0.238, the relative viability (RERF-LC-KJ; first compound 0.04 µM) was 0.816 and the relative viability (RERF-LC-KJ; first compound 0.1265 µM) was 0.816. It also gave a relative viability (RERF-LC-KJ; first compound 0.4 µM) of 0.81, a relative viability (RERF-LC-KJ; first compound 1.265 µM) of 0.782 and a relative viability (RERF-LC-KJ; first compound 4 µM) of 0.535. The relative viability (ABC-1; first compound 0.04 µM) was 1.15, the relative viability (ABC-1; first compound 0.1265 µM) was 0.939 and the relative viability (ABC-1; first compound 0.4 µM) was 0.813. For the same compound, the relative viability (ABC-1; first compound 1.265 µM) was 0.606, the relative viability (ABC-1; first compound 4 µM) was 0.43 and the relative viability (NCI-H2085; first compound 0.04 µM) was 0.734. The relative viability (NCI-H2085; first compound 0.1265 µM) was 0.856, the relative viability (NCI-H2085; first compound 0.4 µM) was 0.873 and the relative viability (NCI-H2085; first compound 1.265 µM) was 0.694. The relative viability (NCI-H2085; first compound 4 µM) was 0.63, the relative viability (NCI-H520; first compound 0.04 µM) was 0.907 and the relative viability (NCI-H520; first compound 0.1265 µM) was 0.704. It also gave a relative viability (NCI-H520; first compound 0.4 µM) of 0.711, a relative viability (NCI-H520; first compound 1.265 µM) of 0.762 and a relative viability (NCI-H520; first compound 4 µM) of 0.663. It also gave a relative viability (NCI-H2170; first compound 0.04 µM) of 1.23, a relative viability (NCI-H2170; first compound 0.1265 µM) of 1.24 and a relative viability (NCI-H2170; first compound 0.4 µM) of 1.18. The relative viability (NCI-H2170; first compound 1.265 µM) was 0.977, the relative viability (NCI-H2170; first compound 4 µM) was 1.28 and the relative viability (NCI-H3122; first compound 0.04 µM) was 0.271. The relative viability (NCI-H3122; first compound 0.1265 µM) was 0.264, the relative viability (NCI-H3122; first compound 0.4 µM) was 0.292 and the relative viability (NCI-H3122; first compound 1.265 µM) was 0.233. For the same compound, the relative viability (NCI-H3122; first compound 4 µM) was 0.173, the relative viability (EPLC-272H; first compound 0.04 µM) was 0.972 and the relative viability (EPLC-272H; first compound 0.1265 µM) was 0.909. The relative viability (EPLC-272H; first compound 0.4 µM) was 0.964, the relative viability (EPLC-272H; first compound 1.265 µM) was 0.704 and the relative viability (EPLC-272H; first compound 4 µM) was 0.0745. For the same compound, the relative viability (201T; first compound 0.04 µM) was 1, the relative viability (201T; first compound 0.1265 µM) was 0.846 and the relative viability (201T; first compound 0.4 µM) was 1.03. For the same compound, the relative viability (201T; first compound 1.265 µM) was 0.986, the relative viability (201T; first compound 4 µM) was 1.11 and the relative viability (NCI-H441; first compound 0.04 µM) was 0.655. The relative viability (NCI-H441; first compound 0.1265 µM) was 0.764, the relative viability (NCI-H441; first compound 0.4 µM) was 0.554 and the relative viability (NCI-H441; first compound 1.265 µM) was 0.648. It also gave a relative viability (NCI-H441; first compound 4 µM) of 0.431, a relative viability (EKVX; first compound 0.04 µM) of 0.989 and a relative viability (EKVX; first compound 0.1265 µM) of 0.93. It also gave a relative viability (EKVX; first compound 0.4 µM) of 0.892, a relative viability (EKVX; first compound 4 µM) of 0.843 and a relative viability (NCI-H1650; first compound 0.04 µM) of 1.04. It also gave a relative viability (NCI-H1650; first compound 0.1265 µM) of 1.01, a relative viability (NCI-H1650; first compound 0.4 µM) of 0.948 and a relative viability (NCI-H1650; first compound 1.265 µM) of 0.817. For the same compound, the relative viability (NCI-H1650; first compound 4 µM) was 0.373, the relative viability (NCI-H2405; first compound 0.04 µM) was 0.841 and the relative viability (NCI-H2405; first compound 0.1265 µM) was 0.821. For the same compound, the relative viability (NCI-H2405; first compound 0.4 µM) was 0.796, the relative viability (NCI-H2405; first compound 1.265 µM) was 0.599 and the relative viability (NCI-H2405; first compound 4 µM) was 0.901. For the same compound, the relative viability (NCI-H2347; first compound 0.04 µM) was 0.779, the relative viability (NCI-H2347; first compound 0.1265 µM) was 0.81 and the relative viability (NCI-H2347; first compound 0.4 µM) was 0.834. The relative viability (NCI-H2347; first compound 1.265 µM) was 0.634, the relative viability (NCI-H2347; first compound 4 µM) was 0.744 and the relative viability (NCI-H1563; first compound 0.04 µM) was 0.917. It also gave a relative viability (NCI-H1563; first compound 0.1265 µM) of 0.88, a relative viability (NCI-H1563; first compound 0.4 µM) of 0.832 and a relative viability (NCI-H1563; first compound 1.265 µM) of 0.806. It also gave a relative viability (NCI-H1563; first compound 4 µM) of 0.854, a relative viability (NCI-H647; first compound 0.04 µM) of 1.16 and a relative viability (NCI-H647; first compound 0.1265 µM) of 0.992. It also gave a relative viability (NCI-H647; first compound 1.265 µM) of 0.955, a relative viability (NCI-H647; first compound 4 µM) of 0.393 and a relative viability (LOU-NH91; first compound 0.04 µM) of 0.745. For the same compound, the relative viability (LOU-NH91; first compound 0.1265 µM) was 0.737, the relative viability (LOU-NH91; first compound 0.4 µM) was 0.671 and the relative viability (LOU-NH91; first compound 1.265 µM) was 0.494. It also gave a relative viability (LOU-NH91; first compound 4 µM) of 0.566, a relative viability (HCC-44; first compound 0.04 µM) of 0.777 and a relative viability (HCC-44; first compound 0.1265 µM) of 0.791. The relative viability (HCC-44; first compound 0.4 µM) was 0.797, the relative viability (HCC-44; first compound 1.265 µM) was 0.611 and the relative viability (HCC-44; first compound 4 µM) was 0.489.
